Data: patent US20100316655A1, “COMPOUNDS WITH MDR1-INVERSE ACTIVITY” (priority 2008, published 2010)

Tests used:
[1] = test system: KB-3-1 adenocarcinoma cells; assay: MTT cytotoxicity assay, parental P-gp-negative KB-3-1 cells; format: cell-based, human
Description: (§1) Exemplary compounds were also tested against the KB-V1 adenocarcinoma cell line that expresses high levels of P-gp (the protein product of MDR1). […] MDR1 selectivity is determined by the ratio of IC50 against KB-3-1 cells divided by its IC50 against KB-V1 cells.
(§2) This example describes evaluation of compounds using the MTT cytotoxicity assay. Cell survival was measured by the MTT (3-(4,5-dimethylthiazol-2-yl)-2,5-diphenyltetrazolium bromide) assay as previously described by Ludwig, J. A. et al. Selective toxicity of NSC73306 in MDR1-positive cells as a new strategy to circumvent multidrug resistance in cancer. […] Briefly, cells were seeded in […] of growth medium at a density of 5000 cells/well in 96-well plates and allowed to establish for 24 hours, at which time serially diluted drugs were added in an additional […] growth medium. Cells were then incubated for 72 hours at 37° C. in humidified 5% CO2, at which time the growth media was drawn, and replaced with MTT in IMDM growth media and incubated for 4 hours. The MTT solution was then drawn from the wells, and […] acidified ethanol solution was added to each well and after 15 minutes absorption at 560 nm was measured.

[2] = test system: KB-V1 adenocarcinoma cell line; assay: MTT cytotoxicity assay, P-gp (MDR1) expressing KB-V1 cells; MDR1 selectivity vs KB-3-1; format: cell-based, human; details: for IC50: MTT, 72 hours; for MDR1 select. / MDR1 selectivity: ratio of IC50 against KB-3-1 divided by IC50 against KB-V1; for MDR1 selectivity: >1 = MDR1-inverse activity
Description: as §1, §2

[3] = Table 2, 72 hours, unit inferred
[4] = Homo sapiens, KB 3-1, Table 2, 72 hours, unit inferred
[5] = Homo sapiens, KB-V1, Table 2, unit inferred
[6] = Homo sapiens, Table 1, 72 hours, KB-3-1 (P-gp-negative)
[7] = Homo sapiens, Table 1, KB-V1 (high P-gp)

Row | Compound | IC50 [1, 3] [µM] | IC50 ([2]; Table 2, unit inferred) [µM] | MDR1 select. ([2]; Table 2) | other results
1 | O=C1Nc2ccccc2C1=NNC(=S)Nc1ccccc1Cl [Compound M5, 1-Isatin-(2′-chlorophenyl)-3-thiosemicarbazone] | 2.22 | 1.17 | 1.89 | –
2 | O=C1Nc2ccccc2C1=NNC(=S)NCc1ccccc1 [Compound M6, 1-Isatin-4-benzyl-3-thiosemicarbazone] | 11.7 | 7.63 | 1.53 | –
3 | O=C1Nc2ccccc2C1=NNC(=S)Nc1cccc(Cl)c1 [Compound M7, 1-Isatin-(3′-chlorophenyl)-3-thiosemicarbazone] | 1.87 | 0.64 | 2.92 | –
4 | O=C1Nc2ccccc2C1=NNC(=S)Nc1ccccc1 [Compound M8, 1-Isatin-(phenyl)-3-thiosemicarbazone] | 3.53 | 1.47 | 2.40 | –
5 | O=C1Nc2ccccc2C1=NNC(=S)Nc1ccc(C(F)(F)F)cc1 [Compound M9, 1-Isatin-4-(4′-(trifluoromethyl)phenyl)-3-thiosemicarbazone] | 8.59 | 2.1 | 4.09 | –
6 | O=C1Nc2ccc(F)cc2/C1=N/NC(=S)Nc1ccc(F)cc1 [Compound M10, 1-(5′-fluoroisatin)-4-(4′-fluorophenyl)-3-thiosemicarbazone] | – | – | 4.07 | IC50 [1, 4]: 3.72 µM; IC50 [2, 5]: 0.91 µM
7 | CCCCNC(=S)NN=C1C(=O)Nc2ccccc21 [Compound M11, 1-Isatin-4-butyl-3-thiosemicarbazone] | 10.9 | 5.69 | 1.91 | –
8 | O=C1Nc2ccccc2C1=NNC(=S)Nc1ccc(Cl)cc1 [Compound M12, 1-Isatin-(4′-chlorophenyl)-3-thiosemicarbazone] | 13.4 | 4.99 | 2.68 | –
9 | O=C1Nc2ccccc2/C1=N/NC(=S)Nc1c(F)cc(F)cc1F [Compound M13, 1-Isatin-4-(2′,4′,6′-trifluorophenyl)thiosemicarbazone] | – | – | 5.27 | IC50 [1, 4]: 38.4 µM; IC50 [2, 5]: 7.28 µM
10 | O=C1Nc2ccccc2/C1=N/NC(=S)Nc1ccc(F)cc1 [Compound M14, 1-Isatin-4-(4′-fluorophenyl)thiosemicarbazone] | – | – | 7.36 | IC50 [1, 4]: 14.2 µM; IC50 [2, 5]: 1.92 µM
11 | CC(C)NC(=S)NN=C1C(=O)Nc2ccccc21 [Compound M15, 1-Isatin-4-isopropyl-3-thiosemicarbazone] | 39.4 | 10.2 | 3.84 | –
12 | Cc1ccc(NC(=S)N/N=C2\C(=O)Nc3ccccc32)cc1 [Compound M16, 1-Isatin-4-(4′-methylphenyl)thiosemicarbazone] | – | – | 9.23 | IC50 [1, 4]: 24 µM; IC50 [2, 5]: 2.6 µM
13 | O=C1Nc2ccccc2/C1=N/NC(=S)Nc1ccc([N+](=O)[O-])cc1 [Compound M17, 1-Isatin-4-(4′-nitrophenyl)thiosemicarbazone] | – | – | 8.27 | IC50 [1, 4]: 17.2 µM; IC50 [2, 5]: 2.07 µM
14 | COc1ccccc1NC(=S)NN=C1C(=O)Nc2ccccc21 [Compound M18, 1-isatin-4-(2′-methoxyphenyl)-3-thiosemicarbazone] | 4.96 | 2.69 | 1.84 | –
15 | O=C1Nc2ccccc2C1=NNC(=S)Nc1ccc(C(=O)O)cc1 [Compound M19, 1-isatin-4-(4′-carboxyphenyl)-3-thiosemicarbazone] | > 50 | > 50 | 1.00 | –
16 | O=C1Nc2ccccc2C1=NNC(=S)Nc1cccc2ccccc12 [Compound M20, 1-isatin-4-(1′-napthyl)-3-thiosemicarbazone] | 5.12 | 2.21 | 2.32 | –
17 | O=C1Nc2ccccc2C1=NNC(=S)Nc1ccc(Oc2ccccc2)cc1 [Compound M21, 1-Isatin-4-(4-phenoxybenzene)-3-thiosemicarbazone] | 5.72 | 1.67 | 3.44 | –
18 | O=C1Nc2ccccc2C1=NNC(=S)NC12CC3CC(CC(C3)C1)C2 [Compound M22, 1-isatin-4-(1′-adamantyl)-3-thiosemicarbazone] | 3.16 | 1.02 | 3.09 | –
19 | COc1cc(NC(=S)NN=C2C(=O)Nc3ccccc32)cc(OC)c1OC [Compound M23, 1-isatin-4-(3′,4′,5′-trimethoxyphenyl)-3-thiosemicarbazone] | 11.1 | 3.49 | 3.18 | –
20 | COc1ccc(NC(=S)NN=C2C(=O)Nc3ccccc32)cc1 [NSC73306, 1-Isatin-4-(4′ methoxyphenyl)thiosemicarbazone, reference compound] | 14.2 | 3.3 | 4.3 | MDR1-inverse selectivity (in words) ([2]; Example 3, Table 1, KB-V1 vs KB-3-1): MDR1-inverse selectivity
21 | O=C1Nc2ccc(Br)cc2/C1=N/NC(=S)Nc1ccc(F)cc1 [drawing 22] | – | – | – | IC50 [1, 6]: 13.1 ± 4.8 µM; IC50 [2, 7]: 5.8 ± 2.5 µM; MDR1 selectivity ([2]; Table 1): 2.3
22 | O=C1Nc2ccc(Br)cc2/C1=N/NC(=S)Nc1ccc([N+](=O)[O-])cc1 [drawing 23] | – | – | – | IC50 [1, 6]: 28.4 ± 5.2 µM; IC50 [2, 7]: 4 ± 0.6 µM; MDR1 selectivity ([2]; Table 1): 7.1
23 | COc1ccc(NC(=S)N/N=C2\C(=O)Nc3ccc(F)cc32)cc1 [drawing 34] | – | – | – | IC50 [1, 6]: 39.3 ± 23.3 µM; IC50 [2, 7]: 5.2 ± 1.1 µM; MDR1 selectivity ([2]; Table 1): 7.5
24 | COc1ccc(NC(=S)N/N=C2\C(=O)N(C)c3ccccc32)cc1 [drawing 35] | – | – | – | IC50 [1, 6]: 19.6 ± 1.7 µM; IC50 [2, 7]: 9.3 ± 2.8 µM; MDR1 selectivity ([2]; Table 1): 2.1
25 | COc1ccc(NC(=S)N/N=C/c2ccccn2)cc1 [drawing 37] | – | – | – | IC50 [1, 6]: 3.4 ± 1.5 µM; IC50 [2, 7]: 2.4 ± 0.5 µM; MDR1 selectivity ([2]; Table 1): 1.4
26 | COc1ccc(NC(=S)N/N=C2\C(=O)Nc3ccc([N+](=O)[O-])cc32)cc1 [drawing 39] | – | – | – | IC50 [1, 6]: 26.3 ± 5.5 µM; IC50 [2, 7]: 6.7 ± 2.9 µM; MDR1 selectivity ([2]; Table 1): 4.0
27 | C=CCNC(=S)N/N=C1\C(=O)Nc2ccccc21 [drawing 40] | – | – | – | IC50 [1, 6]: 26.1 ± 2.6 µM; IC50 [2, 7]: 20.7 ± 7.7 µM; MDR1 selectivity ([2]; Table 1): 1.3
